Calls of active or inactive are those of the source. No cut-off for these calls is given here.
Experiments:
Mus musculus [1] = assay: Anti-inflammatory activity against MOG35-55-induced experimental autoimmune encephalomyelitis C57BL/6 mouse model assessed as fold change in CD4 gene expression in brain at 600 mg/kg/day, ig for 14 days starting from 12th day of immunization by RT-qPCR analysis relative to control; type: functional; settings: time 14 day
Mus musculus [2] = assay: Anti-inflammatory activity against MOG35-55-induced experimental autoimmune encephalomyelitis C57BL/6 mouse model assessed as fold change in TGFB1 gene expression in brain at 600 mg/kg/day, ig for 14 days starting from 12th day of immunization by RT-qPCR analysis relative to control; type: functional; settings: time 14 day
Mus musculus [3] = assay: Anti-inflammatory activity against MOG35-55-induced experimental autoimmune encephalomyelitis C57BL/6 mouse model assessed as fold change in C1S gene expression in brain at 600 mg/kg/day, ig for 14 days starting from 12th day of immunization by RT-qPCR analysis relative to control; type: functional; settings: time 14 day
Mus musculus [4] = assay: Anti-inflammatory activity against MOG35-55-induced experimental autoimmune encephalomyelitis C57BL/6 mouse model assessed as fold change in NFKB gene expression in brain at 300 mg/kg/day, ig for 14 days starting from 12th day of immunization by RT-qPCR analysis relative to control; type: functional; settings: time 14 day
Mus musculus [5] = assay: Anti-inflammatory activity against MOG35-55-induced experimental autoimmune encephalomyelitis C57BL/6 mouse model assessed as fold change in IL6 gene expression in brain at 300 mg/kg/day, ig for 14 days starting from 12th day of immunization by RT-qPCR analysis relative to control; type: functional; settings: time 14 day
Mus musculus [6] = assay: Anti-inflammatory activity against MOG35-55-induced experimental autoimmune encephalomyelitis C57BL/6 mouse model assessed as fold change in C1S gene expression in brain at 300 mg/kg/day, ig for 14 days starting from 12th day of immunization by RT-qPCR analysis relative to control; type: functional; settings: time 14 day
Mus musculus [7] = assay: Anti-inflammatory activity against MOG35-55-induced experimental autoimmune encephalomyelitis C57BL/6 mouse model assessed as fold change in YWHAH gene expression in brain at 300 mg/kg/day, ig for 14 days starting from 12th day of immunization by RT-qPCR analysis relative to control; type: functional; settings: time 14 day
Mus musculus [8] = assay: Anti-inflammatory activity against MOG35-55-induced experimental autoimmune encephalomyelitis C57BL/6 mouse model assessed as reduction in CXCL9 protein expression in brain at 300 to 600 mg/kg/day, ig for 14 days starting from 12th day of immunization by western blot analysis; type: functional, organism-based; settings: dose 300-600 mg/kg/day, time 14.0 day
Mus musculus [9] = assay: Anti-inflammatory activity against MOG35-55-induced experimental autoimmune encephalomyelitis C57BL/6 mouse model assessed as reduction in CCL5 protein expression in brain at 300 to 600 mg/kg/day, ig for 14 days starting from 12th day of immunization by western blot analysis; type: functional, organism-based; settings: dose 300-600 mg/kg/day, time 14.0 day
Mus musculus [10] = assay: Anti-inflammatory activity against MOG35-55-induced experimental autoimmune encephalomyelitis C57BL/6 mouse model assessed as upregulation of MBP protein expression in brain at 300 to 600 mg/kg/day, ig for 14 days starting from 12th day of immunization by western blot analysis relative to control; type: functional; settings: dose 300-600 mg/kg/day, time 14 day
Mus musculus [11] = assay: Anti-inflammatory activity against MOG35-55-induced experimental autoimmune encephalomyelitis C57BL/6 mouse model assessed as reduction in serum Th1 cytokine level by measuring reduction in TNF-alpha level at 600 mg/kg/day, ig for 14 days starting from 12th day of immunization by ELISA; type: functional, organism-based; settings: time 14.0 day
Mus musculus [12] = assay: Anti-inflammatory activity against MOG35-55-induced experimental autoimmune encephalomyelitis C57BL/6 mouse model assessed as methylation of CpG sites of CXCL14 gene promoter in brain at 600 mg/kg, ig for 14 days starting from 12th day of immunization by PCR analysis (reference value: 46.5 +/-6%); type: functional; settings: time 14 day
Mus musculus [13] = assay: Anti-inflammatory activity against MOG35-55-induced experimental autoimmune encephalomyelitis C57BL/6 mouse model assessed as methylation of CpG sites of IL13 gene promoter in brain at 600 mg/kg, ig for 14 days starting from 12th day of immunization by PCR analysis (reference value: 57.3 +/-8%); type: functional; settings: time 14 day
Mus musculus [14] = assay: Anti-inflammatory activity against MOG35-55-induced experimental autoimmune encephalomyelitis C57BL/6 mouse model assessed as methylation of CpG sites of […] gene promoter in brain at 600 mg/kg, ig for 14 days starting from 12th day of immunization by PCR analysis (reference value: 45 +/-7%); type: functional; settings: time 14 day
Mus musculus [15] = assay: Anti-inflammatory activity against MOG35-55-induced experimental autoimmune encephalomyelitis C57BL/6 mouse model assessed as fold change in CXCL9 gene expression in brain at 0.3 mg/kg/day, ig for 14 days starting from 12th day of immunization by RT-qPCR analysis relative to control; type: functional; settings: time 14 day
Mus musculus [16] = assay: Anti-inflammatory activity against MOG35-55-induced experimental autoimmune encephalomyelitis C57BL/6 mouse model assessed as fold change in CCL5 gene expression in brain at 0.15 mg/kg/day, ig for 14 days starting from 12th day of immunization by RT-qPCR analysis relative to control; type: functional; settings: time 14 day
Mus musculus [17] = assay: Anti-inflammatory activity against MOG35-55-induced experimental autoimmune encephalomyelitis C57BL/6 mouse model assessed as fold change in CXCL9 gene expression in brain at 0.15 mg/kg/day, ig for 14 days starting from 12th day of immunization by RT-qPCR analysis relative to control; type: functional; settings: time 14 day
Mus musculus [18] = assay: Anti-inflammatory activity against MOG35-55-induced experimental autoimmune encephalomyelitis C57BL/6 mouse model assessed as fold change in MMP9 gene expression in brain at 0.15 mg/kg/day, ig for 14 days starting from 12th day of immunization by RT-qPCR analysis relative to control; type: functional; settings: time 14 day
Mus musculus [19] = assay: Anti-inflammatory activity against MOG35-55-induced experimental autoimmune encephalomyelitis C57BL/6 mouse model assessed as methylation of CpG sites of IL10RA gene promoter in brain at […], ig for 14 days starting from 12th day of immunization by PCR analysis (reference value: 34.9 +/-4%); type: functional; settings: time 14 day
Mus musculus [20] = assay: Anti-inflammatory activity against MOG35-55-induced experimental autoimmune encephalomyelitis C57BL/6 mouse model assessed as methylation of CpG sites of IL11 gene promoter in brain at […], ig for 14 days starting from 12th day of immunization by PCR analysis (reference value: 61.1 +/-4%); type: functional; settings: time 14 day
Mus musculus [21] = assay: Anti-inflammatory activity against MOG35-55-induced experimental autoimmune encephalomyelitis C57BL/6 mouse model assessed as methylation of CpG sites of IL17A gene promoter in brain at […], ig for 14 days starting from 12th day of immunization by PCR analysis (reference value: 58 +/-6%); type: functional; settings: time 14 day
Mus musculus [22] = assay: Anti-inflammatory activity against MOG35-55-induced experimental autoimmune encephalomyelitis C57BL/6 mouse model assessed as methylation of CpG sites of SOCS5 gene promoter in brain at […], ig for 14 days starting from 12th day of immunization by PCR analysis (reference value: 10.6 +/-4%); type: functional; settings: time 14 day

**Q.** For `CCCCCCCCCCCCCCCCCCCCCCCCC(=O)O[C@H]1CC[C@]2(C)[C@H]3CC=C4[C@@H]5CC(C)(C)CC[C@]5(CO)CC[C@@]4(C)[C@]3(C)CC[C@H]2C1(C)C`, which “fold change (FC)” value (Mus musculus [1]) is on record?
**A.** The value was 1.55.

**Q.** What about the “fold change (FC)” value (Mus musculus [2]) of the same molecule?
**A.** Its value is 8.29.

**Q.** What about the “fold change (FC)” value (Mus musculus [3]) of the same molecule?
**A.** Its value is 1.98.

**Q.** What about the “fold change (FC)” value (Mus musculus [4]) of the same molecule?
**A.** Its value is 1.62.

**Q.** What about the “fold change (FC)” value (Mus musculus [5]) of the same molecule?
**A.** The value was 3.18.

**Q.** And the “fold change (FC)” value (Mus musculus [6])?
**A.** Its value is 1.63.

**Q.** And the “fold change (FC)” value (Mus musculus [7])?
**A.** Its value is -1.38.

**Q.** What about the Activity (Mus musculus [8]) of the same molecule?
**A.** Its Activity is “Active”.

**Q.** What about the Activity (Mus musculus [9]) of the same molecule?
**A.** Its Activity is “Active”.

**Q.** And the “fold change (FC)” value (Mus musculus [10])?
**A.** Its value is 2.

**Q.** And the Activity (Mus musculus [11])?
**A.** Its Activity is “Active”.

**Q.** And the Activity (Mus musculus [12])?
**A.** The Activity was 65.3%.

**Q.** And the Activity (Mus musculus [13])?
**A.** Its Activity is 47.9%.

**Q.** And the Activity (Mus musculus [14])?
**A.** The Activity was 44.7%.

**Q.** What does the source list for `CCCCCCCCc1ccc(CCC(N)(CO)CO)cc1` [FINGOLIMOD]?
**A.** fold change (FC) (Mus musculus [15]): -1.12; fold change (FC) (Mus musculus [16]): 4.46; fold change (FC) (Mus musculus [17]): 2.86; fold change (FC) (Mus musculus [18]): 2.43; Activity (Mus musculus [19]): 51%; Activity (Mus musculus [20]): 36.2%; Activity (Mus musculus [21]): 58.9%; Activity (Mus musculus [22]): 8.8%

From ChEMBL document CHEMBL5226375, “Synthesis and Comprehensive in Vivo Activity Profiling of Olean-12-en-28-ol, 3β-Pentacosanoate in Experimental Autoimmune Encephalomyelitis: A Natural Remyelinating and Anti-Inflammatory Agent” (J Nat Prod, 2023)
